The source of these data is publication PMC10135050, “Neutralizing Carbapenem Resistance by Co-Administering Meropenem with Novel β-Lactam-Metallo-β-Lactamase Inhibitors” (Antibiotics, 2023).

Data set [1] deals with Enterobacter cloacae BM 5 (IMP-1). The experiment in a line: MIC, broth microdilution and checkerboard assay. The class given is cell-based. How it is done:
(§1) The Minimum Inhibitory Concentration (MIC) of meropenem BP2 was determined utilizing the broth microdilution assay, as described by the Clinical and Laboratory Standards Institute (CLSI) antimicrobial susceptibility guidelines. The mono-therapeutic effect of each antibiotic and MBLI was evaluated across a panel of MBL-producing Enterobacterales.
(§2) The drug susceptibility profile of meropenem in combination with BP2 was studied using the checkerboard assay. This assay was used to ascertain the effect of two drugs on antimicrobial resistance targeting CRE strains. The assay was performed according to the protocol described previously and was under CLSI antimicrobial susceptibility guidelines. Briefly, twofold dilutions of meropenem with each chelator were made in Cation-adjusted Mueller Hinton Broth (CAMHB) in a 96-well microtiter plate. A 0.5 McFarland-standardized bacterial inoculum was added to each well to obtain a final volume of 100 µL per well. Thereafter, plates were incubated at 37 °C for 18 h under aerobic conditions. The checkerboard assays were performed in triplicate. The MIC was determined as the lowest concentration at which no visible growth was present. The fractional inhibitory concentration index (FICI) was calculated for each combination according to the equation FICI = FICa (MIC of drug A in combination/MIC of drug A alone) + FICb (MIC of drug B in combination/MIC of drug B alone). The FICI was interpreted as follows: synergy, FICI ≤ 0.5; additive 0.5–1; indifference, […] FICI < 4; and antagonism, FICI ≥ 4 [61].
Background: Dilution methods test growth across graded concentrations, often in twofold steps.

In data set [2] the test system is Enterobacter cloacae IR 386 (NDM-1). The experiment in a line: MIC, broth microdilution and checkerboard assay. Type of data set: cell-based. How it is done: as §1, §2
In data set [3] the test system is Enterobacter cloacae KAR (VIM-1). The experiment in a line: MIC, broth microdilution and checkerboard assay. The class given is cell-based. The method, then: as §1, §2
The subject of data set [4] is Enterobacter cloacae TWA (IMP-8). The experiment in a line: MIC, broth microdilution and checkerboard assay. Type of data set: cell-based. How it is done: as §1, §2
Data set [5] has as its system Escherichia coli AUS 271 (NDM-1). The experiment in a line: MIC, broth microdilution and checkerboard assay. The class given is cell-based. The method, then: as §1, §2
Data set [6] has as its system Escherichia coli BM 14 (VIM-1). The experiment in a line: MIC, broth microdilution and checkerboard assay. The class given is cell-based. How it is done: as §1, §2
In data set [7] the test system is Escherichia coli DIH (VIM-19). The experiment in a line: MIC, broth microdilution and checkerboard assay. Type of data set: cell-based. The method, then: as §1, §2
Data set [8] concerns Escherichia coli FEK (NDM-4). The experiment in a line: MIC, broth microdilution and checkerboard assay. Type of data set: cell-based. The method, then: as §1, §2
The subject of data set [9] is Escherichia coli JAP (IMP-1). The experiment in a line: MIC, broth microdilution and checkerboard assay. Type of data set: cell-based. How it is done:
as §1, §2

In data set [10] the test system is Escherichia coli TWA (IMP-8). The experiment in a line: MIC, broth microdilution and checkerboard assay. Type of data set: cell-based. How it is done:
as §1, §2

Data set [11] has as its system Klebsiella pneumoniae 6852 (IMP-1). The experiment in a line: MIC, broth microdilution and checkerboard assay. The class given is cell-based. The method, then:
as §1, §2

Data set [12] deals with Klebsiella pneumoniae DIH (VIM-19). The experiment in a line: MIC, broth microdilution and checkerboard assay. Type of data set: cell-based. The method, then:
as §1, §2

The subject of data set [13] is Klebsiella pneumoniae ENNES (VIM-1). The experiment in a line: MIC, broth microdilution and checkerboard assay. Type of data set: cell-based. How it is done:
as §1, §2

Data set [14] relates to Klebsiella pneumoniae TWA (IMP-8). The experiment in a line: MIC, broth microdilution and checkerboard assay. Type of data set: cell-based. The method, then:
as §1, §2

Data set [15] relates to Providencia Rettgeri IR38 (NDM-1). The experiment in a line: MIC, broth microdilution and checkerboard assay. The class given is cell-based. How it is done: as §1, §2
For data set [16], the system named is Providencia stuartii PSTU (NDM-1). The experiment in a line: MIC, broth microdilution and checkerboard assay. Type of data set: cell-based. The method, then: as §1, §2
Data set [17] relates to Serratia marcescens (IMP-11). The experiment in a line: MIC, broth microdilution and checkerboard assay. Type of data set: cell-based. How it is done: as §1, §2
Data set [18] deals with Serratia marcescens BM 20 (VIM-2). The experiment in a line: MIC, broth microdilution and checkerboard assay. The class given is cell-based. How it is done: as §1, §2
The nature of data set [19]: Single-dose pharmacokinetic experiment. Type of data set: in vivo. As to conditions: for Time of peak concentration (Cmax) after drug administration: single dose, plasma. The method, then: In order to evaluate BP2’s potential to act synergetically with antibacterial agents such as meropenem in vivo, we next performed a single-dose pharmacokinetic experiment to ensure an appropriate dosing schedule for achieving a safe and therapeutic concentration of BP2 in plasma. […] Constant concentrations were then reached after two hours. A plasma concentration of 1.93 µg/L was obtained with a dose of 10 mg/kg.b.w. This was far below the cytotoxicity concentrations seen in the cell viability assays, advocating for the safe increase in the treatment dose to 100 mg/kg.b.w, which allowed us to reach therapeutic concentrations (Figure 6) in plasma without the possibility of toxicity. In vivo efficacy studies were undertaken to assess the potency of BP2 in a murine infection model. This five-day animal trial was initiated by immune-suppressing the mice with cyclophosphamide to allow the progression of infection and allow BP2 + meropenem treatment to be studied over eight hours on day five of the trial. In addition, it excludes the effects of the innate immune response as a potential variable. This is important since many carbapenem-resistant infections are acquired as secondary infections in immune-suppressed hosts. The mice were successfully infected with Klebsiella pneumoniae NDM, evidenced by visible inflammation of the localized area; this correlated with the cfu/thigh data expressed (Tables S1–S3). Three treatment regimens of S (saline only), M (meropenem only), and BP2 combination therapy (BP2 + meropenem) were used to randomly categorize mice.
A Shimadzu Nexera Series (Shimadzu Corporation, Kyoto, Japan) liquid chromatography system was coupled with Shimadzu LCMS-8050 tandem mass spectrometer (Shimadzu, Kyoto, Japan). […] Quantitative and qualitative studies were conducted using MRM mode via an ESI interface, with the following source parameters: nitrogen nebulizer gas flow 3 L/min; heat gas 10 L/min and interface temperature of 300 °C. […] Results were analyzed using LabSolutions Insight LCMS. All data are expressed as a mean ± SD.

The structures appear in SMILES notation. Like-named read-outs stand apart in the source and are kept apart here.

The term MIC denotes the smallest concentration in the dilution series that meets the test's criterion for growth inhibition. Regarding `CON=C(C(=O)NC1C(=O)N2C(C(=O)O)=C(COC(C)=O)CSC12)c1csc(NC(=O)CC(C(=O)OC)N2CCN(CC(=O)O)CCN(CC(=O)O)CC2)n1` (stereo in doubt) [BP2], the MIC in data set [1] (read-out: MIC BP2 Alone), in [2] (read-out: MIC BP2 Alone), in [3] (read-out: MIC BP2 Alone), in [4] (read-out: MIC BP2 Alone), in data set [5] (read-out: MIC BP2 Alone) and in data set [6] (read-out: MIC BP2 Alone) was above 256 µg/mL in each case. In addition, the MIC in [7] (read-out: MIC BP2 Alone), in [8] (read-out: MIC BP2 Alone), in data set [9] (read-out: MIC BP2 Alone), in [10] (read-out: MIC BP2 Alone), in data set [11] (read-out: MIC BP2 Alone) and in data set [12] (read-out: MIC BP2 Alone) was above 256 µg/mL in each case. In addition, the MIC in data set [13] (read-out: MIC BP2 Alone), in [14] (read-out: MIC BP2 Alone), in [15] (read-out: MIC BP2 Alone), in [16] (read-out: MIC BP2 Alone), in data set [17] (read-out: MIC BP2 Alone) and in data set [18] (read-out: MIC BP2 Alone) was above 256 µg/mL in each case. Also, the Plasma concentration in [19] (dose of 10 mg/kg.b.w) amounted to 1.93 ng/mL. Moreover, in [19], the “Time of peak concentration (Cmax) after drug administration” value turned out to be 15 min.
With `C[C@@H](O)[C@H]1C(=O)N2C(C(=O)O)=C(S[C@@H]3CN[C@H](C(=O)N(C)C)C3)[C@H](C)[C@H]12` [Meropenem], the MIC is above 32 µg/mL in data set [1] (read-out: MIC MEM Alone); 32 µg/mL in data set [2] (E. cloacae IR 386 NDM-1, alone, read-out: MIC MEM Alone); 4 µg/mL in data set [3] (E. cloacae KAR VIM-1, alone, read-out: MIC MEM Alone); 0.125 µg/mL in data set [4] (E. cloacae TWA IMP-8, alone, read-out: MIC MEM Alone); above 128 µg/mL in [5] (E. coli AUS 271 NDM-1, alone, read-out: MIC MEM Alone); 32 µg/mL in [6] (E. coli BM 14 VIM-1, alone, read-out: MIC MEM Alone). For the same compound, the MIC is above 32 µg/mL in data set [7] (E. coli DIH VIM-19, alone, read-out: MIC MEM Alone); above 32 µg/mL in data set [8] (E. coli FEK NDM-4, alone, read-out: MIC MEM Alone); 8 µg/mL in data set [9] (E. coli JAP IMP-1, alone, read-out: MIC MEM Alone); 8 µg/mL in data set [10] (E. coli TWA IMP-8, alone, read-out: MIC MEM Alone); above 32 µg/mL in data set [11] (K. pneumoniae 6852 IMP-1, alone, read-out: MIC MEM Alone); 32 µg/mL in [12] (K. pneumoniae DIH VIM-19, alone, read-out: MIC MEM Alone). The MIC is above 32 µg/mL in data set [13] (K. pneumoniae ENNES VIM-1, alone, read-out: MIC MEM Alone); 8 µg/mL in [14] (K. pneumoniae TWA IMP-8, alone, read-out: MIC MEM Alone); 32 µg/mL in [15] (P. Rettgeri IR38 NDM-1, alone, read-out: MIC MEM Alone); 32 µg/mL in data set [16] (P. stuartii PSTU NDM-1, alone, read-out: MIC MEM Alone); above 32 µg/mL in data set [17] (S. marcescens IMP-11, alone, read-out: MIC MEM Alone); above 32 µg/mL in data set [18] (S. marcescens BM 20 VIM-2, alone, read-out: MIC MEM Alone). In addition, in data set [19], the “Time of peak concentration (Cmax) after drug administration” value was 15 min.
